{"source": "paper PMC12062022", "about": "“Chromene flavanones from Dalea boliviana as xanthine oxidase inhibitors: in vitro biological evaluation and molecular docking studies” (Frontiers in Pharmacology, 2025)", "molecular_target": "T1, xanthine oxidase (Bos taurus, UniProt P80457)", "T1 construct": "gene XDH", "T1 sequence (P80457 2-1332)": "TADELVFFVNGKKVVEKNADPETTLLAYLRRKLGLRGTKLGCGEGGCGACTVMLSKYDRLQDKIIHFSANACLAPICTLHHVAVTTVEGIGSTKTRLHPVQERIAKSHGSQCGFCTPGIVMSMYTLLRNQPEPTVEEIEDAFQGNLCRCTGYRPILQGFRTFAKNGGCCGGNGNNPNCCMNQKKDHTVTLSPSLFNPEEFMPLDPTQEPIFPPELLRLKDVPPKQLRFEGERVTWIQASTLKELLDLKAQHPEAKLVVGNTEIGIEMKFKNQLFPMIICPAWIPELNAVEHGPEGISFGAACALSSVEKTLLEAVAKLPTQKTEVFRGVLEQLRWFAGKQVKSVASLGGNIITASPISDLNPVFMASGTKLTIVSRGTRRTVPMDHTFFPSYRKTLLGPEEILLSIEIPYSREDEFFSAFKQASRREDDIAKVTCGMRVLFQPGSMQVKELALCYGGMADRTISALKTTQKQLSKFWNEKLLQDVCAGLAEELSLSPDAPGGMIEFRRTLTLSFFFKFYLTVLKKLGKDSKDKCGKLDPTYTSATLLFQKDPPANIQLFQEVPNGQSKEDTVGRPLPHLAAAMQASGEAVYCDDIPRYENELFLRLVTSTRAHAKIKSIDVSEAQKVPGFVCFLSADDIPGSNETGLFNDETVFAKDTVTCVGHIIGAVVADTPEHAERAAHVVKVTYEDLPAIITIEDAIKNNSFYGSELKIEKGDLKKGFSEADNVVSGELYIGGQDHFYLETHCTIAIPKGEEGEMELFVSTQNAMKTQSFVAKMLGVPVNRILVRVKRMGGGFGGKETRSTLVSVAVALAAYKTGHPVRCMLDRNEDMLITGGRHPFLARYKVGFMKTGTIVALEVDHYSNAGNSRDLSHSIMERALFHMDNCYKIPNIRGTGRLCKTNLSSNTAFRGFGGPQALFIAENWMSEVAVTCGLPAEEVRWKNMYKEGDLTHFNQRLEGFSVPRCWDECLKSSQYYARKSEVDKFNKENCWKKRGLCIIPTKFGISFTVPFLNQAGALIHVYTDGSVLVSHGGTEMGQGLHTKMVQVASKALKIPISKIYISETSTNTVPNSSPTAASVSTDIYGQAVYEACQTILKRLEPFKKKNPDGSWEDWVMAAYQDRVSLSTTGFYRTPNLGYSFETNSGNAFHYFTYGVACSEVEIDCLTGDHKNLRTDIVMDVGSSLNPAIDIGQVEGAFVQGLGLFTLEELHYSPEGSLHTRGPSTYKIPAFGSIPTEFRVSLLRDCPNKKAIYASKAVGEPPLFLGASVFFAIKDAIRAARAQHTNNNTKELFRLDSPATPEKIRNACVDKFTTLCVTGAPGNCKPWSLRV", "assay": "spectrophotometric assay of uric acid formation at […] nm, bovine milk enzyme", "format": "biochemical", "conditions": "read-out: IC50 (nM) ± SEM", "data": [{"smiles": "CC(C)=CCc1cccc(C2CC(=O)c3c(O)cc4c(c3O2)C=CC(C)(C)O4)c1O", "note": "(stereo in doubt) [compound 2, (2S) 5,2′-dihydroxy-6″,6″-dimethylchromeno-(7,8:2″,3″)-3′-prenylflavanone]", "values": [{"measurement": "IC50", "result": 1.7, "unit": "nM"}]}, {"smiles": "CC1(C)C=Cc2c(cc(O)c3c2OC(c2ccccc2O)CC3=O)O1", "note": "(stereo in doubt) [compound 1, (2S) 5,2′-dihydroxy-6″,6″-dimethylchromeno-(7,8:2″,3″)-flavanone]", "values": [{"measurement": "IC50", "result": 0.5, "unit": "nM"}]}]}
